Laboratory results: US20160002248A1, “GLS1 INHIBITORS FOR TREATING DISEASE” (Board of Regents, The University of Texas System, priority 2014, published 2016)
pEC50, pIC50: −log10 of the molar value.

Tests used:
[1] = target: T1, purified recombinant human GAC (GLS1) (Homo sapiens, UniProt O94925); assay: GLS1 Enzymatic Activity Assay (dual-coupled enzymatic assay); format: biochemical
T1 sequence (O94925 55-598 isoform O94925-3 limits assumed): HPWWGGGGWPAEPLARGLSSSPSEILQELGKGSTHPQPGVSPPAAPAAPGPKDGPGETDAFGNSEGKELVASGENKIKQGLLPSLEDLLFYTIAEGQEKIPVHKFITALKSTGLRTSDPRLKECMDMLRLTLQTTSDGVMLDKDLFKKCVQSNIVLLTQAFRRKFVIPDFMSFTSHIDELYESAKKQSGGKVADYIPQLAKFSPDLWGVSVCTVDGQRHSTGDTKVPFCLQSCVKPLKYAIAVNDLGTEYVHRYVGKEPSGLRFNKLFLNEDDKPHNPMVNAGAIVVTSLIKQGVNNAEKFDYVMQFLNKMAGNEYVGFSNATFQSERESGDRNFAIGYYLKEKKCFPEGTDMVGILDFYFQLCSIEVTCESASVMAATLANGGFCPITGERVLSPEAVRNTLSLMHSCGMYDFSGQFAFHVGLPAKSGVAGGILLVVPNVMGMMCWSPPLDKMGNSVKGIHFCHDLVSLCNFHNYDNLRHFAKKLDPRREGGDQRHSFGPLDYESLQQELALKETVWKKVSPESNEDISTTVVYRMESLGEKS
In short: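 Recombinant human GAC (2 nM) preincubated with 50 mM potassium phosphate, then inhibitor (10 min each, RT); 1 mM glutamine, pH 7.4 Hepes buffer, 1% DMSO. Glutamate coupled via glutamate oxidase/HRP to resorufin (Ex 530/Em 590), kinetic or 20-min endpoint; IC50 by four-parameter logistic fit.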

[2] = system: A549 cells; assay: Proliferation Assay (A549 cell viability, Cell Titer Fluor); format: cell-based; details: Homo sapiens, 72 hours
In short: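 1000 A549 cells/well, RPMI 1640/10% dialyzed FBS, 24 h attach; compound 72 h, 0.5% DMSO, 37 °C/5% CO2; Cell Titer Fluor fluorescence; EC50 via 4-parameter logistic.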

SMILES	pIC50 [1]	pEC50 [2]
NS(=O)(=O)c1cccc(-c2c(C3CC3)[nH]c3nnc(CCCCn4cc(C(=O)NCc5cccc(OC(F)(F)F)c5)nn4)cc23)c1 [Example 181, 1-{4-[6-cyclopropyl-5-(3-sulfamoylphenyl)-7H-pyrrolo[2,3-c]pyridazin-3-yl]butyl}-N-{[3-(trifluoromethoxy)phenyl]methyl}-1H-1,2,3-triazole-4-carboxamide]	> 7.00	5.30 to 6.30
Cc1ccc(CNC(=O)c2cn(CCCCc3cc4cc(-c5ccc(OC(F)(F)F)cc5)[nH]c4nn3)nn2)cn1 [Example 182, N-[(6-methylpyridin-3-yl)methyl]-1-(4-{6-[4-(trifluoromethoxy)phenyl]-7H-pyrrolo[2,3-c]pyridazin-3-yl}butyl)-1H-1,2,3-triazole-4-carboxamide]	> 7.00	6.30 to 7.00
Cc1ccc(CNC(=O)c2cn(CCCCc3cc4cc(-c5ccc(F)cc5F)[nH]c4nn3)nn2)cn1 [Example 183, 1-{4-[6-(2,4-difluorophenyl)-7H-pyrrolo[2,3-c]pyridazin-3-yl]butyl}-N-[(6-methylpyridin-3-yl)methyl]-1H-1,2,3-triazole-4-carboxamide]	> 7.00	6.30 to 7.00
O=C(NCc1cc(C(F)(F)F)ccn1)c1cn(CCCCc2cc3c(-c4ccoc4)c(C4CC4)[nH]c3nn2)nn1 [Example 184, 1-{4-[6-cyclopropyl-5-(furan-3-yl)-7H-pyrrolo[2,3-c]pyridazin-3-yl]butyl}-N-{[4-(trifluoromethyl)pyridin-2-yl]methyl}-1H-1,2,3-triazole-4-carboxamide]	> 7.00	> 7.00
CC(C)COC(=O)N1CC(c2cc3cc(CCCCn4cc(C(=O)NCc5cc(OC(F)(F)F)ccc5F)nn4)nnc3[nH]2)C1 [Example 185, 2-methylpropyl 3-(3-{4-[4-({[2-fluoro-5-(trifluoromethoxy)phenyl]methyl}carbamoyl)-1H-1,2,3-triazol-1-yl]butyl)-7H-pyrrolo[2,3-c]pyridazin-6-yl)azetidine-1-carboxylate]	> 7.00	> 7.00
O=C(NCc1cccc(C(F)(F)F)n1)c1cn(CCCCc2cc3c(-c4ccoc4)c(C4CC4)[nH]c3nn2)nn1 [Example 186, 1-{4-[6-cyclopropyl-5-(furan-3-yl)-7H-pyrrolo[2,3-c]pyridazin-3-yl]butyl}-N-{[6-(trifluoromethyl)pyridin-2-yl]methyl}-1H-1,2,3-triazole-4-carboxamide]	> 7.00	> 7.00
O=C(NCc1ccc(C(F)(F)F)cn1)c1cn(CCCCc2cc3c(-c4ccoc4)c(C4CC4)[nH]c3nn2)nn1 [Example 187, 1-{4-[6-cyclopropyl-5-(furan-3-yl)-7H-pyrrolo[2,3-c]pyridazin-3-yl]butyl}-N-{[5-(trifluoromethyl)pyridin-2-yl]methyl}-1H-1,2,3-triazole-4-carboxamide]	> 7.00	6.30 to 7.00
O=C(NCc1ccc(C(F)(F)F)nc1)c1cn(CCCCc2cc3c(-c4ccoc4)c(C4CC4)[nH]c3nn2)nn1 [Example 188, 1-{4-[6-cyclopropyl-5-(furan-3-yl)-7H-pyrrolo[2,3-c]pyridazin-3-yl]butyl}-N-{[6-(trifluoromethyl)pyridin-3-yl]methyl}-1H-1,2,3-triazole-4-carboxamide]	> 7.00	6.30 to 7.00
O=C(NCc1cncc(C(F)(F)F)c1)c1cn(CCCCc2cc3c(-c4ccoc4)c(C4CC4)[nH]c3nn2)nn1 [Example 189, 1-{4-[6-cyclopropyl-5-(furan-3-yl)-7H-pyrrolo[2,3-c]pyridazin-3-yl]butyl}-N-{[5-(trifluoromethyl)pyridin-3-yl]methyl}-1H-1,2,3-triazole-4-carboxamide]	> 7.00	> 7.00
Cc1ccc(CNC(=O)c2cn(CCCCc3cc4cc(-c5ccccc5F)[nH]c4nn3)nn2)cn1 [Example 190, 1-{4-[6-(2-fluorophenyl)-7H-pyrrolo[2,3-c]pyridazin-3-yl]butyl}-N-[(6-methylpyridin-3-yl)methyl]-1H-1,2,3-triazole-4-carboxamide]	> 7.00	> 7.00
O=C(NCc1cc(C(F)(F)F)ccn1)c1cn(CCCCc2cc3cc(-c4ccccc4F)[nH]c3nn2)nn1 [Example 191]	> 7.00	6.30 to 7.00
CC(C)(C)C(=O)N1CC(c2cc3cc(CCCCn4cc(C(=O)NCc5cc(OC(F)(F)F)ccc5F)nn4)nnc3[nH]2)C1 [Example 192, 1-(4-(6-[1-(2,2-dimethylpropanoyl)azetidin-3-yl]-7H-pyrrolo[2,3-c]pyridazin-3-yl}butyl)-N-{[2-fluoro-5-(trifluoromethoxy)phenyl]methyl}-1H-1,2,3-triazole-4-carboxamide]	> 7.00	> 7.00
O=C(NCc1ccc(C(F)(F)F)cn1)c1cn(CCCCc2cc3cc(-c4ccccc4F)[nH]c3nn2)nn1 [Example 193, 1-(4-[6-(2-fluorophenyl)-7H-pyrrolo[2,3-c]pyridazin-3-yl]butyl}-N-{[5-(trifluoromethyl)pyridin-2-yl]methyl}-1H-1,2,3-triazole-4-carboxamide]	> 7.00	6.30 to 7.00
CC(C)(C)OC(=O)N1CC(c2cc3cc(CCCCn4cc(C(=O)NCc5cc(C(F)(F)F)ccn5)nn4)nnc3[nH]2)C1 [Example 194, tert-butyl 3-(3-{4-[4-({[4-(trifluoromethyl)pyridin-2-yl]methyl}carbamoyl)-1H-1,2,3-triazol-1-yl]butyl}-7H-pyrrolo[2,3-c]pyridazin-6-yl)azetidine-1-carboxylate]	> 7.00	> 7.00
O=C(NCc1cccc(OC(F)(F)F)c1)c1cn(CCCCc2cc3c(C4=CCOCC4)c(C4CC4)[nH]c3nn2)nn1 [Example 195, 1-{4-[6-cyclopropyl-5-(3,6-dihydro-2H-pyran-4-yl)-7H-pyrrolo[2,3-c]pyridazin-3-yl]butyl}-N-{[3-(trifluoromethoxy)phenyl]methyl}-1H-1,2,3-triazole-4-carboxamide]	> 7.00	> 7.00
Cc1ccc(CNC(=O)c2cn(CCCCc3cc4c(C5=CCOCC5)c(C5CC5)[nH]c4nn3)nn2)cn1 [Example 196, 1-{4-[6-cyclopropyl-5-(3,6-dihydro-2H-pyran-4-yl)-7H-pyrrolo[2,3-c]pyridazin-3-yl]butyl}-N-[(6-mcthylpyridin-3-yl)methyl]-1H-1,2,3-triazole-4-carboxamide]	> 7.00	6.30 to 7.00
CC(C)(C)OC(=O)N1CC=C(c2c(C3CC3)[nH]c3nnc(CCCCn4cc(C(=O)NCc5cccc(OC(F)(F)F)c5)nn4)cc23)CC1 [Example 197, tert-butyl 4-(6-cyclopropyl-3-{4-[4-({[3-(trifluoromethoxy)phenyl]methyl}carbamoyl)-1H-1,2,3-triazol-1-yl]butyl}-7H-pyrrolo[2,3-c]pyridazin-5-yl)-1,2,3,6-tetrahydropyridine-1-carboxylate]	> 7.00	> 7.00
Cc1ccc(CNC(=O)c2cn(CCCCc3cc4c(C5=CCN(C(=O)OC(C)(C)C)CC5)c(C5CC5)[nH]c4nn3)nn2)cn1 [Example 198, tert-butyl 4-(6-cyclopropyl-3-[4-(4-{[(6-methylpyridin-3-yl)methyl]carbamoyl}-1H-1,2,3-triazol-1-yl)butyl]-7H-pyrrolo[2,3-c]pyridazin-5-yl}-1,2,3,6-tetrahydropyridine-1-carboxylate]	> 7.00	5.30 to 6.30
